From patent US11078222B2, “Hydroxybenzoic acid derivatives, methods and uses thereof” (UNiVERSIDADE DO PORTO, priority 2016, dated 2021)
Blank lines part the entries; values can stand above or below the compound they belong to.

Assays:
[1] = Iron (II) chelation, ferrozine assay; type: biochemical; conditions: compound 100 μM
Description: In an embodiment, the iron (II) chelation capacity of the novel AntiOxBENs was evaluated by the ferrozine assay using EDTA (ethylenediaminetetracetic acid) as reference. The iron chelating properties of protocatechuic and gallic acids, and MitoQ, a mitochondriotropic antioxidant, were also evaluated (FIG. 2).
In an embodiment, AntiOxBENs iron chelating properties were evaluated by the spectrophotometric ferrozine method performed in a multiplate reader (Powerwave XS Microplate Reader) of Bio-Tech instruments.
In an embodiment, the AntiOxBENs iron chelating properties were evaluated as follows: in each well, a solution of the test compound (100 μM) and ammonium iron (II) sulphate in ammonium acetate (20 μM) were added, incubated for 10 min and the absorbance was read at 562 nm. Then, a freshly prepared solution of ferrozine (5 mM) was added to each well (96 μM final concentration). After a new incubation at 37° C. for 10 min period, the absorbance of [Fe(ferrozine)3]^2+ complex was measured at 562 nm. Blank wells were run using DMSO instead of the test compounds. EDTA was used as a reference. All compounds were tested at a final concentration of 100 μM. The absorbance of the first reading was subtracted to the final values to abolish any absorbance due to the test compounds.

[2] = system: rat liver mitochondria (RLM) membranes; test: RLM lipid peroxidation, TBARS assay (FeSO4/H2O2/ascorbate); conditions: 5 μM; for prevention of TBARS formation / mitochondria lipid peroxidation: FeSO4/H2O2/ascorbate
[3] = ABTS radical cation scavenging activity; type: biochemical; conditions: ethanol, 15 min
[4] = GO radical scavenging activity; type: biochemical; conditions: ethanol, 428 nm, 30 min
[5] = Redox potential by differential pulse and cyclic voltammetry, glassy carbon electrode; type: physicochemical; conditions: physiological pH 7.4
Description: In an embodiment, the oxidative behaviour of the parent antioxidants (protocatechuic and gallic acids) and AntiOxBENs was evaluated at physiological pH 7.4, by differential pulse and cyclic voltammetry, using a glassy carbon working electrode. […] For pyrogallol derivatives (gallic acid, AntiOxBEN2, AntiOxBEN3), a significant decrease in redox potentials was observed (Ep=0.163-0.168 V) (Table 1).
In an embodiment, the electrochemical analytical data was obtained using a computer controlled potentiostat Autolab PGSTAT302N (Metrohm Autolab, Utrecht, Netherlands). Generally, cyclic voltammetry (CV) data was acquired at a scan rate of 50 mVs^−1. Differential pulse voltammetry (DPV) results were acquired at a step potential of 4 mV, pulse amplitude of 50 mV and scan rate of 8 mVs^−1. The electrochemical signals were monitored by the General Purpose Electrochemical System (GPES) version 4.9, software package. All electrochemical experiments were performed at room temperature in an electrochemical cell that was placed in a Faraday cage in order to minimize the contribution of background noise to the analytical signal.
In an embodiment, the process of evaluation of AntiOxBENs redox properties was conducted as follows: stock solutions of each compound (10 mM) were prepared by dissolving the appropriate amount in ethanol. The voltammetric working solutions were prepared in the electrochemical cell, at a final concentration of 0.1 mM. The […] supporting electrolyte was prepared by diluting 6.2 mL of 0.2 M dipotassium hydrogen phosphate and 43.8 mL of 0.2 M potassium dihydrogen phosphate to 100 mL. Voltammetric data was acquired in a three-electrode system consisting of a glassy carbon electrode (GCE, d=2 mm) as working electrode, a counter electrode of platinum wire and a saturated Ag/AgCl reference electrode. In an embodiment, the evaluation of AntiOxBENs lipophilic properties was performed as follows: the electrochemical cell was a four-electrode system with arrays of micro liquid-liquid interfaces (μITIES) containing two Ag/AgCl reference electrodes and two counter electrodes of Pt, one in each phase. The microporous membrane was sealed with a fluorosilicone sealant (Dow Corning 730) onto a glass cylinder which was filled with 4.0 mL of the aqueous phase, where the aliquots of AntiOxBENs solutions were added. The membrane was then immersed into the organic phase contained in the cell. The organic phase reference solution (a 2 mM BTPPACI+2 mM NaCl aqueous solution) was mechanically stabilized The aqueous supporting electrolyte solution was a Tris-HCl buffer 10 mM pH 7.0.

[6] = DPPH radical scavenging activity (total antioxidant capacity); type: biochemical; conditions: ethanol, 515 nm, 45 min
[7] = system: rat liver mitochondria (RLM); test: Mitochondrial transmembrane electric potential (safranine fluorescence); type: biochemical
Description: (§1) In an embodiment, and as an example, the toxicity effects of some AntiOxBENs and MitoQ on the mitochondrial bioenergetics, namely on RLM Δψ and respiration parameters, were measured. The Δψ represents the main component of the electrochemical gradient generated by mitochondrial respiration and accounts for more than 90% of the total available energy. For mitochondrial respiration assays, glutamate/malate (for complex I) and succinate (for complex II) were used as substrates. In addition, the mitochondrial oxidative phosphorylation coupling index, known as respiratory control ratio (RCR, state 3/state 4 respiration) and ADP/O index (the coupling between ATP synthesis and oxygen consumption) were also calculated. AntiOxBENs and MitoQ were tested at antioxidant-relevant concentrations, with 10 μM being the highest concentration.
In an embodiment, the evaluation of AntiOxBENs effect on mitochondrial transmembrane electric potential (Δψ) was performed as follows: the mitochondrial transmembrane electric potential (Δψ) was estimated through the evaluation of fluorescence changes of safranine (5 μM) and was recorded on a spectrofluorometer operating at excitation and emission wavelengths of 495 and 586 nm, with a slit width of 5 nm. Increasing concentrations of AntiOxBENs (2.5-10 μM) were added to the reaction medium (200 mM sucrose, 1 mM KH2PO^4, 10 mM Tris (pH 7.4) and 10 μM EGTA) containing respiratory substrates glutamate/malate (5 mM and 2.5 mM respectively) or succinate (5 mM) and RLM (0.5 mg in 2 mL final volume) and allowed to incubate for a 5 min period prior to initiate the assay, at 25° C. In this assay, safranine (5 μM) and ADP (25 nmol) were used to initiate the assay and to induce depolarization, respectively. Then, 1 μM FCCP was added at the end of all experiments to depolarize mitochondria. Δψ was calculated using a calibration curve obtained when RLM were incubated in a K^+-free reaction medium containing 200 mM sucrose, 1 mM NaH2PO4, 10 mM Tris (pH 7.4) and 10 μM EGTA, supplemented with 0.4 μg valinomicin. […] “Repolarization” corresponded to the recovery of membrane potential after the complete phosphorylation of ADP added. Lag phase reflected the time required to phosphorylate the added ADP. Isolated RLM developed a Δψ≈226 mV and Δψ≈202 mV (negative inside) when glutamate/malate or succinate were used, respectively. Data are means±SEM of five independent experiments.

[8] = system: rat liver mitochondria (RLM); test: Mitochondrial respiration of isolated RLM (Clark-type oxygen electrode): RCR, ADP/O; type: biochemical
Description: as §1
In an embodiment, the evaluation of AntiOxBENs effect on mitochondrial respiration was performed as follows: the respiration of isolated RLM was evaluated polarographically with a Clark-type oxygen electrode, connected to a suitable recorder in a 1 mL thermostated water-jacketed chamber with magnetic stirring, at 37° C. […] Increasing concentrations of AntiOxBENs (2.5-10 μM) were added to the reaction medium containing respiratory substrates glutamate/malate (10 mM and 5 mM respectively) or succinate (5 mM) and RLM (1 mg) and allowed to incubate for a 5 min period prior to the assay. State 2 was considered as the respiration during the 5 min incubation time with AntiOxBENs. […] State 4 was determined after ADP phosphorylation finished. Subsequent addition of oligomycin (2 μg/ml) inhibited ATPsynthase and originated the oligomycin-inhibition respiration state. Finally, 1 μM FCCP was added to induce uncoupled respiration. […] Data are means are means±SEM of seven independent experiments.

Compound: O=C(O)CN(CCN(CC(=O)O)CC(=O)O)CC(=O)O [EDTA, ethylenediaminetetracetic acid]
ability to chelate ferrous iron [1]: chelate all the iron available in solution

IC50 [3]: 7.8 µM
IC50 [4]: 2.5 µM
Ep (redox potential) [5]: 0.163 V
IC50 [6]: 9.9 µM
Compound: O=C(O)c1cc(O)c(O)c(O)c1 [Gallic acid]
prevention of TBARS formation / mitochondria lipid peroxidation [2]: most effective
ability to chelate ferrous iron [1]: able to chelate iron efficiently

Compound: COC1=C(OC)C(=O)C(CCCCCCCCCC[P+](c2ccccc2)(c2ccccc2)c2ccccc2)=C(C)C1=O.CS(=O)(=O)[O-] [MitoQ, [10-(4,5-dimethoxy-2-methyl-3,6-dioxo-1,4-cyclohexadien-1-yl)decyl]triphenylphosphonium methanesulfonate, reference compound]
Δψ after ADP addition ([7]; 10 μM): Δψ collapse after ADP addition
ADP-induced depolarization (ΔΨ in - mV) ([7]; Glutamate/Malate, 2.5 μM): 173.0 ± 9.4 - mV
Lag Phase ([7]; Glutamate/Malate, 2.5 μM): 86.5 ± 5.6 s
Maximum potential (ΔΨ in - mV) ([7]; Glutamate/Malate, 2.5 μM): 195.7 ± 10.8 - mV
Repolarization Potential (ΔΨ in - mV) ([7]; Glutamate/Malate, 2.5 μM): 191.1 ± 11.7 - mV
ADP-induced depolarization (ΔΨ in - mV) ([7]; Glutamate/Malate, 5 μM): 173.5 ± 8.9 - mV
Lag Phase ([7]; Glutamate/Malate, 5 μM): 84.5 ± 7.1 s
Maximum potential (ΔΨ in - mV) ([7]; Glutamate/Malate, 5 μM): 188.3 ± 10.6 - mV
Repolarization Potential (ΔΨ in - mV) ([7]; Glutamate/Malate, 5 μM): 185.0 ± 9.4 - mV
Maximum potential (ΔΨ in - mV) ([7]; Glutamate/Malate, 10 μM): 113.8 ± 10.2 - mV
ADP-induced depolarization (ΔΨ in - mV) ([7]; Succinate, 2.5 μM): 162.1 ± 6.0 - mV
Lag Phase ([7]; Succinate, 2.5 μM): 104.8 ± 9.9 s
Maximum potential (ΔΨ in - mV) ([7]; Succinate, 2.5 μM): 181.6 ± 8.3 - mV
Repolarization Potential (ΔΨ in - mV) ([7]; Succinate, 2.5 μM): 182.7 ± 9.2 - mV
ADP-induced depolarization (ΔΨ in - mV) ([7]; Succinate, 5 μM): 157.1 ± 6.4 - mV
Lag Phase ([7]; Succinate, 5 μM): 92.6 ± 19.4 s
Maximum potential (ΔΨ in - mV) ([7]; Succinate, 5 μM): 170.2 ± 8.1 - mV
Repolarization Potential (ΔΨ in - mV) ([7]; Succinate, 5 μM): 170.7 ± 8.7 - mV
Maximum potential (ΔΨ in - mV) ([7]; Succinate, 10 μM): 108.9 ± 3.8 - mV
inhibition of lipid peroxidation in RLM ([2]; FIGS. 4 and 5 (TBARS and oxygen consumption)): effectively inhibited lipid peroxidation
concentration causing toxicity on the mitochondrial bioenergetic apparatus of RLM ([8]; RLM): 2.5 µM
ADP/O ([8]; RLM, Glutamate/Malate, 2.5 μM): 2.2 ± 0.1
RCR ([8]; RLM, Glutamate/Malate, 2.5 μM): 4.2 ± 0.6
ADP/O ([8]; RLM, Glutamate/Malate, 5 μM): 1.9 ± 0.1
RCR ([8]; RLM, Glutamate/Malate, 5 μM): 2.7 ± 0.3
ADP/O ([8]; RLM, Glutamate/Malate, 10 μM): 2.0 ± 0.2
RCR ([8]; RLM, Glutamate/Malate, 10 μM): 1.3 ± 0.1
ADP/O ([8]; RLM, Succinate, 2.5 μM): 1.3 ± 0.1
RCR ([8]; RLM, Succinate, 2.5 μM): 2.6 ± 0.2
ADP/O ([8]; RLM, Succinate, 5 μM): 1.3 ± 0.1
RCR ([8]; RLM, Succinate, 5 μM): 2.4 ± 0.2
effect on RCR and ADP/O parameters ([8]; RLM, all tested concentrations (2.5-10 μM)): significant decrease of RCR and ADP/O parameters
uncoupling of RLM ([8]; succinate, highest concentration tested (10 μM)): completely uncoupled

Compound: O=C(O)c1ccc(O)c(O)c1 [Protocatechuic acid]
prevention of TBARS formation / mitochondria lipid peroxidation [2]: not effective
IC50 [3]: 30.1 µM
IC50 [4]: 5.8 µM
ability to chelate ferrous iron [1]: able to chelate iron efficiently
Ep (redox potential) [5]: 0.257 V
IC50 [6]: 27.6 µM

IC50 [3]: 31.1 µM
IC50 [4]: 4.5 µM
Ep (redox potential) [5]: 0.099 V
IC50 [6]: 26.8 µM
Compound: Cc1c(C)c2c(c(C)c1O)CCC(C)(C(=O)O)O2 (centres unmarked) [Trolox]

IC50 [3]: 30.9 µM
IC50 [4]: 5.8 µM
IC50 [6]: 26.3 µM
Compound: Vitamin E
